{"source": "ChEMBL document CHEMBL3785034", "about": "“New isosteroidal alkaloids with tracheal relaxant effect from the bulbs of Fritillaria pallidiflora Schrenk” (Bioorg Med Chem Lett, 2016)", "key": {"Trachea [1]": {"test_system": "Trachea", "assay": "Inhibition of Ach-induced contraction in Sprague-Dawley rat trachea", "type": "functional, tissue-based"}, "Trachea [2]": {"test_system": "Trachea", "assay": "Inhibition of Ach-induced contraction in Sprague-Dawley rat trachea assessed as maximal diastolic rate at 10^-5 mol/L (reference value: 15.9 +/- 2.6%)", "type": "functional", "set-up": "scale not given: the % may be the effect or the level left"}, "Trachea [3]": {"test_system": "Trachea", "assay": "Inhibition of KCl-induced contraction in Sprague-Dawley rat trachea assessed as maximal diastolic rate at 10^-9 mol/L (reference value: 5.9 +/- 1.8%)", "type": "functional", "set-up": "scale not given: the % may be the effect or the level left"}, "Trachea [4]": {"test_system": "Trachea", "assay": "Inhibition of KCl-induced contraction in Sprague-Dawley rat trachea assessed as maximal diastolic rate at 10^-7 mol/L (reference value: 7 +/- 0.8%)", "type": "functional", "set-up": "scale not given: the % may be the effect or the level left"}, "Trachea [5]": {"test_system": "Trachea", "assay": "Inhibition of Ach-induced contraction in Sprague-Dawley rat trachea assessed as tracheal tension at 10^-5 mol/L (reference value: 0.63 to 0.98 g)", "type": "functional"}, "Trachea [6]": {"test_system": "Trachea", "assay": "Inhibition of KCl-induced contraction in Sprague-Dawley rat trachea assessed as tracheal tension at 10^-7 mol/L (reference value: 2.16 to 2.59 g)", "type": "functional"}, "Trachea [7]": {"test_system": "Trachea", "assay": "Inhibition of KCl-induced contraction in Sprague-Dawley rat trachea assessed as maximal diastolic rate at 10^-8 mol/L (reference value: 7 +/- 0.3%)", "type": "functional", "set-up": "scale not given: the % may be the effect or the level left"}, "Trachea [8]": {"test_system": "Trachea", "assay": "Inhibition of Ach-induced contraction in Sprague-Dawley rat trachea assessed as maximal diastolic rate at 10^-4 mol/L (reference value: 15 +/- 4.2%)", "type": "functional", "set-up": "scale not given: the % may be the effect or the level left"}, "Trachea [9]": {"test_system": "Trachea", "assay": "Inhibition of KCl-induced contraction in Sprague-Dawley rat trachea assessed as tracheal tension at 10^-6 mol/L (reference value: 2.16 to 2.59 g)", "type": "functional"}, "Trachea [10]": {"test_system": "Trachea", "assay": "Inhibition of KCl-induced contraction in Sprague-Dawley rat trachea assessed as tracheal tension at 10^-4 mol/L (reference value: 2.16 to 2.59 g)", "type": "functional"}, "Trachea [11]": {"test_system": "Trachea", "assay": "Inhibition of KCl-induced contraction in Sprague-Dawley rat trachea assessed as tracheal tension at 10^-5 mol/L (reference value: 2.16 to 2.59 g)", "type": "functional"}, "Trachea [12]": {"test_system": "Trachea", "assay": "Inhibition of Ach-induced contraction in Sprague-Dawley rat trachea assessed as tracheal tension at 10^-4 mol/L (reference value: 0.63 to 0.98 g)", "type": "functional"}, "Trachea [13]": {"test_system": "Trachea", "assay": "Inhibition of Ach-induced contraction in Sprague-Dawley rat trachea assessed as tracheal tension at 10^-9 mol/L (reference value: 0.63 to 0.98g)", "type": "functional"}, "Trachea [14]": {"test_system": "Trachea", "assay": "Inhibition of Ach-induced contraction in Sprague-Dawley rat trachea at 1 to 100 umol/L", "type": "functional, tissue-based", "conditions": "read-out: pA2 (converted)"}, "Trachea [15]": {"test_system": "Trachea", "assay": "Inhibition of KCl-induced contraction in Sprague-Dawley rat trachea assessed as tracheal tension at 10^-9 mol/L (reference value: 2.16 to 2.59 g)", "type": "functional"}, "Trachea [16]": {"test_system": "Trachea", "assay": "Inhibition of KCl-induced contraction in Sprague-Dawley rat trachea assessed as maximal diastolic rate at 10^-4 mol/L (reference value: 6.6 +/- 0.3%)", "type": "functional", "set-up": "scale not given: the % may be the effect or the level left"}, "Trachea [17]": {"test_system": "Trachea", "assay": "Inhibition of KCl-induced contraction in Sprague-Dawley rat trachea assessed as tracheal tension at 10^-8 mol/L (reference value: 2.16 to 2.59 g)", "type": "functional"}, "Trachea [18]": {"test_system": "Trachea", "assay": "Inhibition of Ach-induced contraction in Sprague-Dawley rat trachea assessed as tracheal tension at 10^-8 mol/L (reference value: 0.63 to 0.98 g)", "type": "functional"}, "Trachea [19]": {"test_system": "Trachea", "assay": "Inhibition of Ach-induced contraction in Sprague-Dawley rat trachea at 100 umol/L", "type": "functional, tissue-based"}, "Trachea [20]": {"test_system": "Trachea", "assay": "Inhibition of Ach-induced contraction in Sprague-Dawley rat trachea assessed as maximal diastolic rate at 10^-7 mol/L (reference value: 14.2 +/- 2.3%)", "type": "functional", "set-up": "scale not given: the % may be the effect or the level left"}, "Trachea [21]": {"test_system": "Trachea", "assay": "Inhibition of Ach-induced contraction in Sprague-Dawley rat trachea assessed as tracheal tension at 10^-6 mol/L (reference value: 0.63 to 0.98 g)", "type": "functional"}, "Trachea [22]": {"test_system": "Trachea", "assay": "Inhibition of Ach-induced contraction in Sprague-Dawley rat trachea assessed as tracheal tension at 10^-7 mol/L (reference value: 0.63 to 0.98 g)", "type": "functional"}, "Trachea [23]": {"test_system": "Trachea", "assay": "Inhibition of KCl-induced contraction in Sprague-Dawley rat trachea assessed as maximal diastolic rate at 10^-5 mol/L (reference value: 6 +/- 0.6%)", "type": "functional", "set-up": "scale not given: the % may be the effect or the level left"}, "Trachea [24]": {"test_system": "Trachea", "assay": "Inhibition of Ach-induced contraction in Sprague-Dawley rat trachea assessed as maximal diastolic rate at 10^-6 mol/L (reference value: 15.9 +/- 3%)", "type": "functional", "set-up": "scale not given: the % may be the effect or the level left"}, "Trachea [25]": {"test_system": "Trachea", "assay": "Inhibition of KCl-induced contraction in Sprague-Dawley rat trachea assessed as maximal diastolic rate at 10^-6 mol/L (reference value: 6 +/- 1.2%)", "type": "functional", "set-up": "scale not given: the % may be the effect or the level left"}, "Trachea [26]": {"test_system": "Trachea", "assay": "Inhibition of Ach-induced contraction in Sprague-Dawley rat trachea assessed as maximal diastolic rate at 10^-9 mol/L (reference value: 12.7 +/- 2.8%)", "type": "functional", "set-up": "scale not given: the % may be the effect or the level left"}, "Trachea [27]": {"test_system": "Trachea", "assay": "Inhibition of Ach-induced contraction in Sprague-Dawley rat trachea assessed as maximal diastolic rate at 10^-8 mol/L (reference value: 14 +/- 1.8%)", "type": "functional", "set-up": "scale not given: the % may be the effect or the level left"}}, "note": "The source made the active and inactive calls. The calls are words filed in the database; no cut-off is given here."}
{"molecule": "C[C@@H]1CC[C@H]2N(C1)C[C@H]1[C@@H]3C[C@H]4[C@@H](CC(=O)[C@H]5C[C@@H](O)CC[C@@]54C)[C@@H]3CC[C@@H]1[C@]2(C)O", "values": [{"measurement": "EC50", "setting": "Trachea [1]", "value": 650, "unit": "nM"}, {"measurement": "Activity", "setting": "Trachea [2]", "value": 34.3, "unit": "%"}, {"measurement": "Activity", "setting": "Trachea [3]", "value": 6.2, "unit": "%"}, {"measurement": "Activity", "setting": "Trachea [4]", "value": 3.2, "unit": "%"}, {"measurement": "Activity", "setting": "Trachea [5]", "value": 0.43, "unit": "g"}, {"measurement": "Activity", "setting": "Trachea [6]", "value": 2.49, "unit": "g"}, {"measurement": "Activity", "setting": "Trachea [7]", "value": 5.2, "unit": "%"}, {"measurement": "Activity", "setting": "Trachea [8]", "value": 39.3, "unit": "%"}, {"measurement": "Activity", "setting": "Trachea [9]", "value": 2.48, "unit": "g"}, {"measurement": "Activity", "setting": "Trachea [10]", "value": 2.48, "unit": "g"}, {"measurement": "Activity", "setting": "Trachea [11]", "value": 2.49, "unit": "g"}, {"measurement": "Activity", "setting": "Trachea [12]", "value": 0.38, "unit": "g"}, {"measurement": "Activity", "setting": "Trachea [13]", "value": 0.54, "unit": "g"}, {"measurement": "Kb", "setting": "Trachea [14]", "value": 646, "unit": "nM"}, {"measurement": "Activity", "setting": "Trachea [15]", "value": 2.43, "unit": "g"}, {"measurement": "Activity", "setting": "Trachea [16]", "value": 3.6, "unit": "%"}, {"measurement": "Activity", "setting": "Trachea [17]", "value": 2.46, "unit": "g"}, {"measurement": "Activity", "setting": "Trachea [18]", "value": 0.51, "unit": "g"}, {"measurement": "inhibition", "setting": "Trachea [19]", "value": "Active"}, {"measurement": "Activity", "setting": "Trachea [20]", "value": 27.5, "unit": "%"}, {"measurement": "Activity", "setting": "Trachea [21]", "value": 0.46, "unit": "g"}, {"measurement": "Activity", "setting": "Trachea [22]", "value": 0.48, "unit": "g"}, {"measurement": "Activity", "setting": "Trachea [23]", "value": 3.3, "unit": "%"}, {"measurement": "Activity", "setting": "Trachea [24]", "value": 30.4, "unit": "%"}, {"measurement": "Activity", "setting": "Trachea [25]", "value": 3.6, "unit": "%"}, {"measurement": "Activity", "setting": "Trachea [26]", "value": 15.8, "unit": "%"}, {"measurement": "Activity", "setting": "Trachea [27]", "value": 20.6, "unit": "%"}]}
